Data from patent publication US5447957A, “Anti-inflammatory compounds” (SmithKline Beecham Corp., priority 1994, dated 1995).

What was measured:
CoA-IT = test: Assay (b): CoA-IT activity in U937 cell microsomes; format: biochemical, human; conditions: generally at 50 μM or less
Source text: Assay (b): CoA-IT Activity
The following is a method to measure CoA-IT activity and the effects of compounds on CoA-IT activity. The assay is based upon mixing cellular material containing CoA-IT activity with a stable lyso phospholipid such as […] and measuring the production of phospholipid product such as […] occurring in the absence of added CoA or CoA-fatty acids.
Any inflammatory cell that contains high levels of CoA-IT activity can be used, such as neutrophils, macrophages or cell lines such as U937 cells. […] Cells were grown without differentiation (basal state) by any agent, such as dimethyl sulfoxide. As used herein, "inflammatory cells" include, but are not limited to neutrophils, macrophages, monocytes, lymphocytes, eosinophils, basophils, and mast cells.
Microsomes were prepared using standard techniques. In this case, cells were washed with a buffer of 250 mM sucrose, 10 mM Tris, 1 mM EGTA, 1 mM MgCl2, pH 7.4 and ruptured by N2 cavitation (750 psi, 10 minutes). The ruptured cells were centrifuged 1000× g, 5 minutes. The resulting supernatant was centrifuged at 20,000×g,~20 minutes. Microsomes were prepared from this supernatant by centrifugation at 100,000× g, 60 minutes. The resulting pellet was washed once with assay buffer (150 mM NaCl, 10 mM Na2 KPO4, 1 mM EGTA, pH 7.4), recentrifuged and the pellet resuspended in assay buffer (4-20 mg protein/ml) and was stored at -80° C. until assayed.
CoA-IT activity was measured in 1.5 ml centrifuge tubes in a total volume of 100 ul. Microsomes were diluted in assay buffer to the desired protein concentration (6-20 ug/tube). The reaction was initiated by addition of [3H] 1-alkyl-2-lyso-sn-glycero-3-phosphocholine (GPC)(~0.1 uCi/tube) and 1 μM final cold 1-alkyl-2-lyso-GPC in assay buffer with 0.25 mg/ml fatty acid-poor bovine serumalbumin (BSA) (Calbiochem, La Jolla, Calif.). [3H]1-alkyl-2-lyso-GPC, approximately 50 Ci/mmol, was from NEN-Dupont (Boston, Mass.) and cold 1-alkyl-2-lyso-GPC was from Biomol (Plymouth Meeting, Penn.). Microsomes were pretreated with desired agents for the desired time (10 minutes) before the addition of [3H]1-alkyl-2-lyso-GPC. The reaction was run for the desired time (10 minutes) at 37° C. The reaction was stopped and the lipids extracted by addition of 100 ul of chloroform:methanol (1:2, v/v) followed by 100 ul of chloroform and 100 ul of 1M KCI. The samples were vortexed and centrifuged at high speed in a microfuge for 2-3 minutes. An aliquot of the chloroform-extracted materials were separated, usually by TLC in chloroform/methanol/acetic acid/water (50:25:8:4, v/v), visualized by radioscanning (Bioscan) and the product, [3H] 1-alkyl-2-acyl-GPC, was scraped and quantified by liquid scintillation spectroscopy. […] Other methods can be used to separate substrate from product, including but not limited to column chromatography, affinity chromatography and post reaction derivitization.

[1] = system: TPA-induced Mouse Ear Inflammation; test: Assay (g): TPA-induced Mouse Ear Inflammation (ear edema and MPO); format: in vivo; conditions: "this animal model"; topical
Source text: The ability of compounds that inhibit CoA-IT and/or PLA2 to affect in vivo inflammatory responses may be assessed. Inflammatory responses are induced in the mouse ear by the topical application of a pro-inflammatory agent, such as 12-0-tetradecanoylphorbol 13-acetate (assay g). This produces an edematous response, as measured by increases in ear thickness, as well as increased inflammatory cellular infiltrate, as measured by increases in myeloperoxidase activity (as described in the methods). To further validate the mechanism of action inflammation induced by the direct adminstration of arachidonic acid can be used. In this case compounds altering arachidonic acid mobilization or liberation should be with our effect.
Male Balb/c inbred mice were obtained from Charle River Breeding Laboratories (Kingston, N.Y.). Within a single experiment mice (22-25 g) were age-matched. These in vivo experiments typically involved use of 5-6 animals/group.
TPA (12-0-tetradecanoylphorbol 13-acetate) (Sigma Chemical Company) in acetone ([…]) was applied to the inner and outer surfaces of the left ear of BALB/c male mice. The thickness of both ears was then measured with a dial micrometer (Mitutoyo, Japan) at both 2 and 4 hours after treatment, and the data expressed as the change in thickness (10^-3 cm) between treated and untreated ears. […] After measuring the edema, the inflammed left ears were removed and stored at -70° C. until they were assayed for MPO (myeloperoxidase) activity where appropriate.
On the day of the assay, partially thawed ear tissues were minced and then homogenized (10% w/v) with a Tissumizer homogenizer (Tekmar Co.) in 50 mM phosphate buffer (pH 6) containing 0.5% HTAB. The tissue homogenates were taken through three cycles of freeze-thaw, followed by brief sonication (10 sec). The method of Bradley et al. was used with modifications as described. The appearance of a colored product from the MPO-dependent reaction of o-dianisidine (0.167 mg/ml; Sigma) and hydrogen peroxide (0.0005%; Sigma) was measured spectrophotometrically at 460 nm. Supernatant MPO activity was quantified kinetically (change in absorbance measured over 3 min, sampled at 15-sec intervals) using a Beckman DU-7 spectrophotometer and a Kinetics Analysis package (Beckman Instruments, Inc.). One unit of MPO activity is defined as that degrading one micromole of peroxide per minute at 25° C.
Statistical analysis was done using Student's "t" test. The ED50 are values which cause a 50% inhibition of the inflammatory response and are calculated by regression analysis of the dose response data.

human neutrophils = test: Assay (d): Production of Platelet-Activating Factor (PAF), A23187-challenged neutrophils; format: cell-based; conditions: A23187 2 μM
Protocol: Assay (d): Assay for Production of Platelet-Activating Factor (PAF)
Blood is obtained from normal humans and neutrophils were isolated as described for the arachidonic acid release assay, above. The final leukocyte preparation should be of greater than 95% purity and viability.
Neutrophils were suspended in PBS at concentrations of 5 to 20×10^6 cells per ml. Cells were added to test tubes and treated with the desired compounds for 5 to 10 minutes, then challenged with calcium ionophore A23187, 2 μM and 20-30 μCi of [3H]acetic acid (NEN-Dupont, Boston, Mass.), or the vehicle of PBS with 0.25-1 mg/ml. After 5 to 20 minutes, the reactions were terminated by addition of an equal volume of chloroform:methanol (1:2, v/v) to the samples and the lipids were extracted by addition of equal volumes of chloroform and distilled water. The samples were vortexed and centrifuged at high speed and the chloroform layer removed to a clean tube.
The chloroform from each tube was evaporated to dryness and the material suspended in a small volume of chloroform or chloroform:methanol (25-100 μl) and the total material spotted on a Silica TLC plate. The plates were developed in chloroform/methanol/acetic acid/water (50:25:8:4, v/v) visualized by radioscanning (Bioscan) and the product, [^3 H]PAF, was scraped and quantified by liquid scintillation spectroscopy. […]

SMILES | inhibition of CoA-IT activity in the microsomal CoA-IT assay (CoA-IT) | inhibition in mouse ear inflammation animal model [1] | inhibition of PAF production (human neutrophils)
O=C(Nc1cc(C(F)(F)F)cc(C(F)(F)F)c1)Nc1ccccc1Oc1ccccc1C(=O)O [Example 2, 2-[2-[3-[3,5-Bis (trifluoromethyl)phenyl]ureido]phenoxy]benzoic acid] | inhibit CoA-IT activity | positive inhibition | positive activity
O=C(Nc1cc(C(F)(F)F)cc(C(F)(F)F)c1)Nc1cc(C(F)(F)F)ccc1Oc1ccccc1C(=O)O [Example 7, 2-[2-[3-[3,5-Bis(trifluoromethyl)phenyl]ureido]-4-trifluoromethylphenoxy]benzoic acid] | inhibit CoA-IT activity | positive inhibition | positive activity
